In patent US9924716B2, “Molecules having pesticidal utility, and intermediates, compositions, and processes, related thereto” (Dow AgroSciences LLC, priority 2016, dated 2018):

Tests used:
Assay type in all cases: in vivo
[1] = system: Beet Armyworm (Spodoptera exigua, LAPHEG) second instar larvae; assay: Bioassay on Beet Armyworm (BAW), 128-well diet tray assay; conditions: for pest or weed control at 50 µg/cm2: Beet Armyworm, Table ABC Biological Results, read-out: BAW rating; for mortality at 0.05 µg/cm2: 0.05 μg/cm^2 on artificial diet; for mortality at 0.05 µg/cm2 / mortality at 0.5 µg/cm2 / mortality at 5 µg/cm2: read-out: Percent control (or mortality) BAW; for mortality at 0.5 µg/cm2: 0.5 μg/cm^2 on artificial diet; for mortality at 5 µg/cm2: 5 μg/cm^2 on artificial diet
Experimental: (§1) Certain molecules disclosed in this document were tested against BAW, CEW, and CL using procedures described in the following examples. In the reporting of the results, the “BAW, CEW, & CL Rating Table” was used (See Table Section).
Bioassays on BAW were conducted using a 128-well diet tray assay. one to five second instar BAW larvae were placed in each well (3 mL) of the diet tray that had been previously filled with 1 mL of artificial diet to which 50 μg/cm^2 of the test molecule (dissolved in 50 μL of 90:10 acetone-water mixture) had been applied (to each of eight wells) and then allowed to dry. Trays were covered with a clear self-adhesive cover and held at 25° C., 14:10 light-dark for five to seven days. Percent mortality was recorded for the larvae in each well; activity in the eight wells was then averaged. The results are indicated in the table entitled “Table ABC: Biological Results” (See Table Section).
(§2) Bioassays on BAW and CL were conducted according to the procedures outlined in Example A: Bioassays on Beet Armyworm (“BAW”) and Cabbage Looper (“CL”) using the indicated concentrations.

[2] = system: Yellow Fever Mosquito (Aedes aegypti, AEDSAE) larvae; assay: Bioassay on Yellow Fever Mosquito (YFM), 96-well plate larval assay; conditions: Table ABC Biological Results
Experimental: Certain molecules disclosed in this document were tested against YFM using procedures described in the following paragraph. In the reporting of the results, the “GPA & YFM Rating Table” was used (See Table Section).
Master plates containing 400 μg of a molecule dissolved in 100 μL of dimethyl sulfoxide (DMSO) (equivalent to a 4000 ppm solution) are used. A master plate of assembled molecules contains 15 μL per well. To this plate, 135 μL of a 90:10 water:acetone mixture is added to each well. A robot (Biomek® NXP Laboratory Automation Workstation) is programmed to dispense 15 μL aspirations from the master plate into an empty 96-well shallow plate (“daughter” plate). There are 6 reps (“daughter” plates) created per master. The created daughter plates are then immediately infested with YFM larvae.
The day before plates are to be treated, mosquito eggs are placed in Millipore water containing liver powder to begin hatching (4 g. into 400 mL). After the daughter plates are created using the robot, they are infested with 220 μL of the liver powder/larval mosquito mixture (about 1 day-old larvae). After plates are infested with mosquito larvae, a non-evaporative lid is used to cover the plate to reduce drying. Plates are held at room temperature for 3 days prior to grading. After 3 days, each well is observed and scored based on mortality. The results are indicated in the table entitled “Table ABC: Biological Results” (See Table Section).

[3] = system: Cabbage Looper (Trichoplusia ni, TRIPNI) second instar larvae; assay: Bioassay on Cabbage Looper (CL), 128-well diet tray assay; conditions: for pest or weed control at 50 µg/cm2: Cabbage Looper, Table ABC Biological Results, read-out: CL rating; for mortality at 0.05 µg/cm2: 0.05 μg/cm^2 on artificial diet; for mortality at 0.05 µg/cm2 / mortality at 0.5 µg/cm2 / mortality at 5 µg/cm2: read-out: Percent control (or mortality) CL; for mortality at 0.5 µg/cm2: 0.5 μg/cm^2 on artificial diet; for mortality at 5 µg/cm2: 5 μg/cm^2 on artificial diet
Experimental: as §1
Bioassays on CL were conducted using a 128-well diet tray assay. one to five second instar CL larvae were placed in each well (3 mL) of the diet tray that had been previously filled with 1 mL of artificial diet to which 50 μg/cm^2 of the test molecule (dissolved in 50 μL of 90:10 acetone-water mixture) had been applied (to each of eight wells) and then allowed to dry. Trays were covered with a clear self-adhesive cover and held at 25° C., 14:10 light-dark for five to seven days. Percent mortality was recorded for the larvae in each well; activity in the eight wells was then averaged. The results are indicated in the table entitled “Table ABC: Biological Results” (See Table Section).
as §2

Compound | pest or weed control at 50 µg/cm2 [1] [%] | YFM rating [2] | pest or weed control at 50 µg/cm2 [3] [%] | also measured
C[C@H](NC(=O)CC(F)(F)F)NC(=O)c1ccc(/C(F)=C/C(c2cc(Cl)cc(Cl)c2)C(F)(F)F)cc1C(F)(F)F (stereo partly drawn) [F11, 4-((Z)-3-(3,5-dichlorophenyl)-1,4,4,4-tetrafluorobut-1-en-1-yl)-2-(trifluoromethyl)-N—((R)-1-(3,3,3-trifluoropropanamido)ethyl)benzamide] | 50 to 100 | A (80-100) | 50 to 100 | 
C[C@H](NC(=O)CCC(F)(F)F)NC(=O)c1ccc(/C(F)=C/C(c2cc(Cl)cc(Cl)c2)C(F)(F)F)cc1C(F)(F)F (stereo partly drawn) [F12, 4-((Z)-3-(3,5-Dichlorophenyl)-1,4,4,4-tetrafluorobut-1-en-1-yl)-N—((R)-1-(4,4,4-trifluorobutanamido)ethyl)-2-(trifluoromethyl)benzamide] | 50 to 100 | A (80-100) | 50 to 100 | 
C[C@H](NC(=O)CC(F)(F)F)NC(=O)c1ccc(/C(F)=C/C(c2ccc(Cl)c(Cl)c2)C(F)(F)F)cc1C(F)(F)F (stereo partly drawn) [F13, 4-((Z)-3-(3,4-Dichlorophenyl)-1,4,4,4-tetrafluorobut-1-en-1-yl)-2-(trifluoromethyl)-N—((R)-1-(3,3,3-trifluoropropanamido)ethyl)benzamide] | 50 to 100 | A (80-100) | 50 to 100 | 
C[C@H](NC(=O)CCC(F)(F)F)NC(=O)c1ccc(/C(F)=C/C(c2ccc(Cl)c(Cl)c2)C(F)(F)F)cc1C(F)(F)F (stereo partly drawn) [F14, 4-((Z)-3-(3,4-Dichlorophenyl)-1,4,4,4-tetrafluorobut-1-en-1-yl)-N—((R)-1-(4,4,4-trifluorobutanamido)ethyl)-2-(trifluoromethyl)benzamide] | 50 to 100 | A (80-100) | 50 to 100 | 
C[C@H](NC(=O)CCC(F)(F)F)NC(=O)c1ccc(/C(F)=C/C(c2cc(Cl)c(Br)c(Cl)c2)C(F)(F)F)cc1C(F)(F)F (stereo partly drawn) [F15, 4-((Z)-3-(4-Bromo-3,5-dichlorophenyl)-1,4,4,4-tetrafluorobut-1-en-1-yl)-N—((R)-1-(4,4,4-trifluorobutanamido)ethyl)-2-(trifluoromethyl)benzamide] | 50 to 100 | A (80-100) | 50 to 100 | 
C=Cc1c(Cl)cc(C(/C=C(\F)c2ccc(C(=O)N[C@H](C)NC(=O)CC(F)(F)F)c(C(F)(F)F)c2)C(F)(F)F)cc1Cl (stereo partly drawn) [F18, 4-((Z)-3-(3,5-Dichloro-4-vinylphenyl)-1,4,4,4-tetrafluorobut-en-1-yl)-2-(trifluoromethyl)-N—((R)-1-(3,3,3-trifluoropropanamido)ethyl)benzamide] | 50 to 100 | A (80-100) | 50 to 100 | 
C=Cc1c(Cl)cc(C(/C=C(\F)c2ccc(C(=O)N[C@H](C)NC(=O)CCC(F)(F)F)c(C(F)(F)F)c2)C(F)(F)F)cc1Cl (stereo partly drawn) [F19, 4-((Z)-3-(3,5-Dichloro-4-vinylphenyl)-1,4,4,4-tetrafluorobut-1-en-1-yl)-N—((R)-1-(4,4,4-trifluorobutanamido)ethyl)-2-(trifluoromethyl)benzamide] | 50 to 100 | A (80-100) | 50 to 100 | 
CC[C@H](NC(=O)CC(F)(F)F)NC(=O)c1ccc(/C(F)=C/C(c2cc(Cl)c(Cl)c(Cl)c2)C(F)(F)F)cc1C(F)(F)F (stereo partly drawn) [F35, 4-((Z)-1,4,4,4-Tetrafluoro-3-(3,4,5-trichlorophenyl)but-1-en-1-yl)-2-(trifluoromethyl)-N—((R)-1-(3,3,3-trifluoropropanamido)propyl)benzamide] | 50 to 100 |  | 50 to 100 | 
C[C@H](NC(=O)CC(F)(F)F)NC(=O)c1ccc(/C(F)=C/C(c2ccc(Cl)c(Br)c2)C(F)(F)F)cc1C(F)(F)F (stereo partly drawn) [F37, 4-((Z)-3-(3-Bromo-4-chlorophenyl)-1,4,4,4-tetrafluorobut-1-en-1-yl)-2-(trifluoromethyl)-N—((R)-1-(3,3,3-trifluoropropanamido)ethyl)benzamide] | 50 to 100 |  | 50 to 100 | 
C[C@H](NC(=O)CC(F)(F)F)NC(=O)c1ccc(/C(F)=C/C(c2ccc(Cl)c(Cl)c2)C(C)(F)F)cc1C(F)(F)F (stereo partly drawn) [F39, 4-((Z)-3-(3,4-Dichlorophenyl)-1,4,4-trifluoropent-1-en-1-yl)-2-(trifluoromethyl)-N—((R)-1-(3,3,3-trifluoropropanamido)ethyl)benzamide] | 50 to 100 |  | 50 to 100 | 
C[C@H](NC(=O)CCC(F)(F)F)NC(=O)c1ccc(/C(F)=C/C(c2ccc(Cl)c(Cl)c2)C(C)(F)F)cc1C(F)(F)F (stereo partly drawn) [F40, 4-((Z)-3-(3,4-Dichlorophenyl)-1,4,4-trifluoropent-1-en-1-yl)-N—((R)-1-(4,4,4-trifluorobutanamido)ethyl)-2-(trifluoromethyl)benzamide] | 50 to 100 |  | 50 to 100 | 
C[C@H](NC(=O)CC(F)(F)F)NC(=O)c1ccc(/C(F)=C/C(c2cc(Cl)c(Cl)c(Cl)c2)C(F)(F)F)cc1 (stereo partly drawn) [FC1, 4-((Z)-1,4,4,4-Tetrafluoro-3-(3,4,5-trichlorophenyl)but-1-en-1-yl)-N—((R)-1-(3,3,3-trifluoropropanamido)ethyl)benzamide, reference compound] |  |  |  | mortality at 0.05 µg/cm2 [1]: 0%; mortality at 0.5 µg/cm2 [1]: 0%; mortality at 5 µg/cm2 [1]: 7%; mortality at 0.05 µg/cm2 [3]: 0%; mortality at 0.5 µg/cm2 [3]: 0%; mortality at 5 µg/cm2 [3]: 100%
C[C@H](NC(=O)CCC(F)(F)F)NC(=O)c1ccc(/C(F)=C/C(c2cc(Cl)c(Cl)c(Cl)c2)C(F)(F)F)cc1 (stereo partly drawn) [FC2, 4-((Z)-1,4,4,4-Tetrafluoro-3-(3,4,5-trichlorophenyl)but-1-en-1-yl)-N—((R)-1-(4,4,4-trifluorobutanamido)ethyl)benzamide, reference compound] |  |  |  | mortality at 0.05 µg/cm2 [1]: 0%; mortality at 0.5 µg/cm2 [1]: 0%; mortality at 5 µg/cm2 [1]: 100%; mortality at 0.05 µg/cm2 [3]: 0%; mortality at 0.5 µg/cm2 [3]: 6%; mortality at 5 µg/cm2 [3]: 100%
C[C@H](NC(=O)CC(F)(F)F)NC(=O)c1ccc(/C(F)=C/C(c2ccc(Br)c(Cl)c2)C(F)(F)F)cc1C(F)(F)F (stereo partly drawn) [PF8, 4-((Z)-3-(4-Bromo-3-chlorophenyl)-1,4,4,4-tetrafluorobut-1-en-1-yl)-2-(trifluoromethyl)-N—((R)-1-(3,3,3-trifluoropropanamido)ethyl)benzamide] | 50 to 100 |  | 50 to 100 | 
C[C@H](NC(=O)CCC(F)(F)F)NC(=O)c1ccc(/C(F)=C/C(c2ccc(Cl)c(Br)c2)C(F)(F)F)cc1C(F)(F)F (stereo partly drawn) [PF13, 4-((Z)-3-(3-Bromo-4-chlorophenyl)-1,4,4,4-tetrafluorobut-1-en-1-yl)-N—((R)-1-(4,4,4-trifluorobutanamido)ethyl)-2-(trifluoromethyl)benzamide] | 50 to 100 |  | 50 to 100 | 
C[C@@H](NC(=O)c1ccc(/C(F)=C/C(c2cc(Cl)c(Cl)c(Cl)c2)C(F)(F)F)cc1C(F)(F)F)NC(=O)C1(C#N)CC1 (stereo partly drawn) [PF31, N—((S)-1-(1-Cyanocyclopropane-1-carboxamido)ethyl)-4-((Z)-1,4,4,4-tetrafluoro-3-(3,4,5-trichlorophenyl)but-1-en-1-yl)-2-(trifluoromethyl)benzamide] | 50 to 100 |  | 50 to 100 | 
